Key:
fecal microbiota = test: Chicken study, probiotics and ESBL E. coli followed by oral or injected Amp (FIG. 6); assay type: in vivo, chickens; conditions: Group 7 and Group 5, with or without ESBL E. coli inoculation
Source text: FIGS. 6A and 6B show probiotics and ESBL inoculation on the profiles of poultry fecal microbiota followed by oral or injective antibiotic treatment. FIG. 6A) Phylum level; FIG. 6B) Class level. Group 1: probiotic cocktail treatment throughout, E coli exposure from Day 5 for 4 days and then oral Amp; Group 2: probiotic/peanut butter treatment throughout followed by E coli exposure and then oral Amp; Group 3: inoculated (E coli) then exposed to oral Amp, Group 4: noninoculated then exposed to oral Amp, Group 5: noninoculated then exposed to injective Amp, Group 6: noninoculated then exposed to saline; Group 7: inoculated (E coli) then exposed to injective Amp.
It was recognized that even if antibiotic resistant bacteria may be reduced by probiotic treatment, some of those resistant bacteria seeds might still retain in the microbiota, and could pop up again when exposed to antibiotics. Therefore in another set of the experiment, following probiotic and ESBL E. coli exposure, the chickens were further treated with Amp by oral or muscle injection. […] But Probiotic treated chickens (Group 1 &2) retained more Firmicutes or Cynobacteria than chickens without probiotic treatment (Group 3 with inoculated ESBL E. coli & Group 4 natural flora, with one outlier). […]

Three Amp^r E. coli = test: MIC assessment, summary for the three strains; assay type: cell-based, Escherichia coli; conditions: E. coli CA-1, CA-4 and CA-20 together
Experimental: (§1) Bacterial strains. Multiple Amp^r strains from feces of broiler chickens without antibiotic treatment were recovered on Columbia blood Agar base (Becton, […] Dickinson and Company, Franklin Lakes, NJ) supplemented with 5% defibrinated sheep blood (Thermo Scientific™, Grand Island, NY). The strains were maintained in Columbia broth (Becton Dickinson and Company, Franklin Lakes, NJ), and propagated by aerobic growth at 37° C., and further subjected to strain identification and Minimum Inhibition Concentration (MIC) assessments.
(§2) Minimum inhibition concertation (MIC) assessment. A TREK Sensititre diagnostic system (Thermo scientific, Oakwood Village, OH, USA) was used to assess the AR phenotype and MIC of isolated strains. Protocols to use this system can be found on www.trekds.com. Cation-adjusted Mueller Hinton Broth (Becton, Dickinson and Company, MD, USA) was used as basic medium.

E. coli CA-4 = test: MIC assessment (TREK Sensititre); assay type: cell-based, Escherichia coli; conditions: Escherichia coli, CA4; E. coli CA-4; read-out: MIC
Experimental: as §1, §2

E. coli CA-20 = test: MIC assessment (TREK Sensititre); assay type: cell-based, Escherichia coli; conditions: Escherichia coli, CA20; E. coli CA-20; read-out: MIC
Experimental: as §1, §2

## CC1(C)S[C@@H]2[C@H](NC(=O)[C@H](N)c3ccccc3)C(=O)N2[C@H]1C(=O)O [AMP, ampicillin]
Fecal microbiota
  retention of Firmicutes, injection versus oral: significant difference in retaining Firmicutes
Three Amp^r E. coli
  resistance phenotype from MIC, in words: high resistance
E. coli CA-4
  MIC: > 16 µg/mL
E. coli CA-20
  MIC: > 16 µg/mL
